{"source": "paper PMC10712727", "about": "“Safety, Tolerability, and Pharmacokinetics of Senaparib, a Novel PARP1/2 Inhibitor, in Chinese Patients With Advanced Solid Tumors: A Phase I Trial” (The Oncologist, 2023)", "tested_on": "patients with advanced solid tumors", "assay": "Safety: treatment-emergent and senaparib-related adverse events graded per NCI CTCAE v4.03", "type": "in vivo", "method": "This phase I, open-label, multicenter, dose-escalation, and dose-expansion study was conducted at three national clinical institutions in China. […] At baseline, all patients enrolled in the dose-escalation phase had to have at least one evaluable lesion, and those in the dose-expansion period had to have at least one measurable lesion, according to Response Evaluation Criteria in Solid Tumors version 1.1 (RECIST v1.1).[16] Entry to the dose-expansion cohort required the presence of a BRCA mutation, with the exception of patients with ovarian carcinoma, fallopian tube carcinoma, and primary peritoneal carcinoma. Full study eligibility criteria are provided in Supplementary Table S1.\nDose escalation was conducted using a modified Fibonacci 3 + 3 method (Supplementary Fig. S1).[17] Patients were administered oral senaparib from a planned starting dose of 2 mg once daily (QD), with preliminary dose escalation to 120 mg via nine dose groups, in order of their entry into the study. At a given dose level, each patient received a single dose of senaparib followed by a 7-day washout period. They then entered a continuous dosing period to confirm the safety and PK profile, in which they received senaparib QD from day 1 to day 21 of each 3-week cycle. Progression to the next higher dose required approval from the Data Safety Monitoring Committee (DSMC) upon review of the safety and PK data of the previous dose. A 50-mg twice-daily (BID) dosing group was added (planned enrollment, n = 6 patients) based on a DSMC review of the safety, PK, and efficacy analysis of the completed QD dose groups in the phase I clinical trial of senaparib dose escalation in Australia (NCT03507543), which commenced prior to the start of this trial.\nThe dose-expansion period included 3 populations: dose groups in which at least one patient achieved complete response (CR) or partial response (PR) per RECIST v1.1[16] and 1 dose group higher (evaluated for safety), as well as the dose group at the maximum tolerated dose (MTD)/recommended phase II dose (RP2D). Each of these groups included those patients in the respective dose-escalation group plus a planned additional 10 patients (approximately 20 patients in the MTD/RP2D group) with BRCA^mut+ solid tumors (ovarian, breast, or prostate cancer were preferred, and ovarian cancer could be BRCA wild type). Patients received senaparib monotherapy orally QD or BID (50-mg dose only) over each 3-week cycle until disease progression or unacceptable toxicity.\nDLTs were predefined toxicities (Supplementary Table S2) recorded over the 7 days following the single-dose administration of senaparib and during the first treatment cycle (day 1-day 21) for each dose group in the dose-escalation period only. The MTD was defined as the maximum dose at which ≤1/6 patients experienced a DLT. Senaparib PK parameters were derived from blood samples collected from patients after the single administration, and at regular intervals during the first cycle of the dose-escalation and dose-expansion periods. Plasma concentrations of senaparib were determined using high-performance liquid chromatography-tandem mass spectrometry. Tumor response was assessed every 6 weeks per RECIST v1.1,[16] recording objective response rate (ORR), disease control rate (DCR), duration of response (DOR), and progression-free survival (PFS) by dose level for all patients and for those harboring BRCA^mut+ tumors.", "data": [{"smiles": "O=C(c1cc(Cn2c(=O)[nH]c(=O)c3c(F)cccc32)ccc1F)N1CCN(c2ncccn2)CC1", "note": "[Senaparib]", "values": [{"measurement": "AST increased TRAE, All", "setting": "60 mg QD n = 5", "value": "0 n (%)"}, {"measurement": "AST increased TRAE, Gr≥3", "setting": "60 mg QD n = 5", "value": "0 n (%)"}, {"measurement": "Anemia TRAE, All", "setting": "60 mg QD n = 5", "value": "0 n (%)"}, {"measurement": "Anemia TRAE, Gr≥3", "setting": "60 mg QD n = 5", "value": "0 n (%)"}, {"measurement": "Any TEAE, All", "setting": "60 mg QD n = 5", "value": "5 (100) n (%)"}, {"measurement": "Any TEAE, Gr≥3", "setting": "60 mg QD n = 5", "value": "2 (40.0) n (%)"}, {"measurement": "Any TEAE, events", "setting": "60 mg QD n = 5", "value": 33, "unit": "n ev"}, {"measurement": "Any TEAE, patients", "setting": "60 mg QD n = 5", "value": "5 (100) n (%)"}, {"measurement": "Any TRAE, All", "setting": "60 mg QD n = 5", "value": "5 (100) n (%)"}, {"measurement": "Any TRAE, Gr≥3", "setting": "60 mg QD n = 5", "value": "0 n (%)"}, {"measurement": "Appetite decreased TRAE, All", "setting": "60 mg QD n = 5", "value": "1 (20.0) n (%)"}, {"measurement": "Appetite decreased TRAE, Gr≥3", "setting": "60 mg QD n = 5", "value": "0 n (%)"}, {"measurement": "Asthenia TRAE, All", "setting": "60 mg QD n = 5", "value": "1 (20.0) n (%)"}, {"measurement": "Asthenia TRAE, Gr≥3", "setting": "60 mg QD n = 5", "value": "0 n (%)"}, {"measurement": "Blood bilirubin increased TRAE, All", "setting": "60 mg QD n = 5", "value": "0 n (%)"}, {"measurement": "Blood bilirubin increased TRAE, Gr≥3", "setting": "60 mg QD n = 5", "value": "0 n (%)"}, {"measurement": "Blood creatinine increased TRAE, All", "setting": "60 mg QD n = 5", "value": "1 (20.0) n (%)"}, {"measurement": "Blood creatinine increased TRAE, Gr≥3", "setting": "60 mg QD n = 5", "value": "0 n (%)"}, {"measurement": "Hypokalemia TRAE, All", "setting": "60 mg QD n = 5", "value": "1 (20.0) n (%)"}, {"measurement": "Hypokalemia TRAE, Gr≥3", "setting": "60 mg QD n = 5", "value": "0 n (%)"}, {"measurement": "Nausea TRAE, All", "setting": "60 mg QD n = 5", "value": "1 (20.0) n (%)"}, {"measurement": "Nausea TRAE, Gr≥3", "setting": "60 mg QD n = 5", "value": "0 n (%)"}, {"measurement": "Neutrophil count decreased TRAE, All", "setting": "60 mg QD n = 5", "value": "1 (20.0) n (%)"}, {"measurement": "Neutrophil count decreased TRAE, Gr≥3", "setting": "60 mg QD n = 5", "value": "0 n (%)"}, {"measurement": "Platelet count decreased TRAE, All", "setting": "60 mg QD n = 5", "value": "2 (40.0) n (%)"}, {"measurement": "Platelet count decreased TRAE, Gr≥3", "setting": "60 mg QD n = 5", "value": "0 n (%)"}, {"measurement": "SAEs, events", "setting": "60 mg QD n = 5", "value": 2, "unit": "n ev"}, {"measurement": "SAEs, patients", "setting": "60 mg QD n = 5", "value": "2 (40.0) n (%)"}, {"measurement": "TEAE Grade ≥3, events", "setting": "60 mg QD n = 5", "value": 2, "unit": "n ev"}, {"measurement": "TEAE Grade ≥3, patients", "setting": "60 mg QD n = 5", "value": "2 (40.0) n (%)"}, {"measurement": "TEAEs leading to death, events", "setting": "60 mg QD n = 5", "value": 0, "unit": "n ev"}, {"measurement": "TEAEs leading to death, patients", "setting": "60 mg QD n = 5", "value": "0 n (%)"}, {"measurement": "TEAEs leading to dose discontinuation, events", "setting": "60 mg QD n = 5", "value": 1, "unit": "n ev"}, {"measurement": "TEAEs leading to dose discontinuation, patients", "setting": "60 mg QD n = 5", "value": "1 (20.0) n (%)"}, {"measurement": "TEAEs leading to dose interruption, events", "setting": "60 mg QD n = 5", "value": 1, "unit": "n ev"}, {"measurement": "TEAEs leading to dose interruption, patients", "setting": "60 mg QD n = 5", "value": "1 (20.0) n (%)"}, {"measurement": "TEAEs leading to dose reduction, events", "setting": "60 mg QD n = 5", "value": 0, "unit": "n ev"}, {"measurement": "TEAEs leading to dose reduction, patients", "setting": "60 mg QD n = 5", "value": "0 n (%)"}, {"measurement": "TRAEs Grade ≥3, events", "setting": "60 mg QD n = 5", "value": 0, "unit": "n ev"}, {"measurement": "TRAEs Grade ≥3, patients", "setting": "60 mg QD n = 5", "value": "0 n (%)"}, {"measurement": "TRAEs, events", "setting": "60 mg QD n = 5", "value": 27, "unit": "n ev"}, {"measurement": "TRAEs, patients", "setting": "60 mg QD n = 5", "value": "5 (100) n (%)"}, {"measurement": "Vomiting TRAE, All", "setting": "60 mg QD n = 5", "value": "0 n (%)"}, {"measurement": "Vomiting TRAE, Gr≥3", "setting": "60 mg QD n = 5", "value": "0 n (%)"}, {"measurement": "WBC decreased TRAE, All", "setting": "60 mg QD n = 5", "value": "2 (40.0) n (%)"}, {"measurement": "WBC decreased TRAE, Gr≥3", "setting": "60 mg QD n = 5", "value": "0 n (%)"}, {"measurement": "ALT increased TRAE, All", "setting": "80 mg QD n = 9", "value": "1 (11.1) n (%)"}, {"measurement": "ALT increased TRAE, Gr≥3", "setting": "80 mg QD n = 9", "value": "0 n (%)"}, {"measurement": "AST increased TRAE, All", "setting": "80 mg QD n = 9", "value": "2 (22.2) n (%)"}, {"measurement": "AST increased TRAE, Gr≥3", "setting": "80 mg QD n = 9", "value": "0 n (%)"}, {"measurement": "Anemia TRAE, All", "setting": "80 mg QD n = 9", "value": "7 (77.8) n (%)"}, {"measurement": "Anemia TRAE, Gr≥3", "setting": "80 mg QD n = 9", "value": "3 (33.3) n (%)"}, {"measurement": "Any TEAE, All", "setting": "80 mg QD n = 9", "value": "9 (100) n (%)"}, {"measurement": "Any TEAE, Gr≥3", "setting": "80 mg QD n = 9", "value": "6 (66.7) n (%)"}, {"measurement": "Any TEAE, events", "setting": "80 mg QD n = 9", "value": 132, "unit": "n ev"}, {"measurement": "Any TEAE, patients", "setting": "80 mg QD n = 9", "value": "9 (100) n (%)"}, {"measurement": "Any TRAE, All", "setting": "80 mg QD n = 9", "value": "9 (100) n (%)"}, {"measurement": "Any TRAE, Gr≥3", "setting": "80 mg QD n = 9", "value": "5 (55.6) n (%)"}]}]}
